According to the supplement of paper PMC10290057:

Experiments:
[1] = system: HCT116; experiment: AC50 cell viability (CellTiter-Glo); higher = less potent; settings: 48 h
[2] = system: HCT116; experiment: efficacy (fitted maximal change in viability relative to DMSO control); higher = less cytotoxic (negative = loss of viability); settings: 48 h
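For AC50 cell viability (CellTiter-Glo) in this document: HCT116 colorectal carcinoma cells screened at five concentrations per compound, luminescent viability scaled between DMSO wells and empty wells on each plate, curves fitted per compound.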
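For efficacy (fitted maximal change in viability relative to DMSO control) in this document: Luminescence-based viability readout, five doses per compound, normalized against on-plate DMSO and empty-well controls, followed by dose-response curve fitting for every drug.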

COC1=C(OCCCN2CCOCC2)C=C3N=CC=C(OC4=CC=C(C=C4F)\C5=C\N=C(\NC6=CC=C(F)C=C6)N(C)C5=O)C3=C1 [AMG-51]
AC50 cell viability [1]: 16.6 µM
efficacy [2]: -136%

CC(C)[C@@H](C[S+](=O)([O-])C(C)C)N1C(=O)[C@@](C)(CC(=O)O)C[C@H](c2cccc(Cl)c2)[C@H]1c1ccc(Cl)cc1 [AMG-232]
AC50 cell viability [1]: 1.48 µM
efficacy [2]: -84.7%

COC1=CC2=NC=CC(=C2C=C1)OC3=CN=C(NC(=O)C/4=C(C)/N(CC(C)(C)O)N(C4=O)C5=CC=CC=C5)C=C3 [AMG-458]
AC50 cell viability [1]: 16.6 µM
efficacy [2]: -71.6%

COc1ncc(Nc2ncc([C@H](C)N3CCN([S+](C)(=O)[O-])CC3)cc2-c2nc(C)nc(N)n2)cc1F [AMG-511]
AC50 cell viability [1]: 5.9 µM
efficacy [2]: -80.5%

CN\1C(=O)/C(=C(\N=C1NC[C@@H](N)CC2=CC=CC=C2)C3=CC=NC=C3)C4=CC5=C(C=CC=C5)C=C4 [AMG-548]
AC50 cell viability [1]: 20.9 µM
efficacy [2]: -101%

CC#C[C@@H](CC(=O)O)c1ccc(OCc2cccc(-c3ccc(C(F)(F)F)cc3)c2)cc1 [AMG-837]
AC50 cell viability [1]: 20.9 µM
efficacy [2]: -40.8%

Cc1csc(-c2nnc(Nc3ccc(Oc4ncccc4-c4ccnc(N)n4)cc3)c3ccccc23)c1 [AMG-900]
AC50 cell viability [1]: 16.6 µM
efficacy [2]: -52.9%

CNc1nccc(-c2cccnc2Oc2cc(C(=O)Nc3cccc(C(F)(F)F)c3)ccc2C)n1 [AMG-Tie2-1]
AC50 cell viability [1]: 1.66 µM
efficacy [2]: -78.8%

Cc1[nH]c2ccc(F)cc2c1-c1nc2c3cccnc3c3ncccc3c2[nH]1 [APTO-253]
AC50 cell viability [1]: 0.679 µM
efficacy [2]: -77.4%

c1cc(Nc2cc(C3CC3)n[nH]2)nc(Nc2ccc3nc[nH]c3c2)n1 [APY29]
AC50 cell viability [1]: 0.235 µM
efficacy [2]: -66.4%

NCCCN([C@H](CC#C)C/1=N/C2=C(C=CC(=C2)Cl)C(=O)N1NC3=CC=CC=C3)C(=O)C4=CC=CC(=C4F)Cl [ARQ-621]
AC50 cell viability [1]: 0.468 µM
efficacy [2]: -102%

Cn1cnc2c(F)c(Nc3ccc(Br)cc3F)c(C(=O)NOCCO)cc21 [ARRY-162]
AC50 cell viability [1]: 0.468 µM
efficacy [2]: -60.8%

C[C@H](NC(=O)[C@@H]1C[C@@H](O)CN1C(=O)[C@@H](NC(=O)COCCCOCCNC(=O)C[C@@H]2\N=C(C3=CC=C(Cl)C=C3)/C4=C(SC(=C4C)C)[N]5C(=NN=C25)C)C(C)(C)C)C6=CC=C(C=C6)C7=C(C)N=CS7 [ARV-771]
AC50 cell viability [1]: 0.148 µM
efficacy [2]: -91%

CC1=C(C)C\2=C(S1)[N]3C(=NN=C3[C@H](CC(=O)NC4=CC=C(OCCOCCOCCOCCNC5=CC=CC6=C5C(=O)N(C7CCC(=O)NC7=O)C6=O)C=C4)\N=C2C8=CC=C(Cl)C=C8)C (stereo partly drawn) [ARV-825]
AC50 cell viability [1]: 0.263 µM
efficacy [2]: -73.3%

COc1cc(N2CCC(N3CCN(C)CC3)CC2)ccc1Nc1ncnc(Nc2ccccc2[S+](=O)([O-])C(C)C)n1 [ASP-3026]
AC50 cell viability [1]: 4.68 µM
efficacy [2]: -82.2%

C=CC(=O)Nc1ccc2ncnc(Nc3ccc(OCc4cccc(F)c4)c(Cl)c3)c2c1 [AST-1306]
AC50 cell viability [1]: 11.8 µM
efficacy [2]: -98.3%

O=C(NC1CCNCC1)c1n[nH]cc1NC(=O)c1c(Cl)cccc1Cl [AT-7519]
AC50 cell viability [1]: 0.235 µM
efficacy [2]: -65.1%

Clc1ccc(C2(c3ccc(-c4cn[nH]c4)cc3)CCNCC2)cc1 [AT-7867]
AC50 cell viability [1]: 18.6 µM
efficacy [2]: -87.4%

O=C(Nc1c[nH]nc1-c1nc2cc(CN3CCOCC3)ccc2[nH]1)NC1CC1 [AT-9283]
AC50 cell viability [1]: 0.417 µM
efficacy [2]: -62.5%

C=CC(=O)Nc1cc2c(Nc3ccc(F)c(Cl)c3)ncnc2cc1C#CC(C)(C)N1CCN(C)CC1 [AV-412]
AC50 cell viability [1]: 9.34 µM
efficacy [2]: -104%

CC[C@H](CC#N)OC(=O)N[C@@H](C)c1cccc(NC(=O)Nc2ccc(-c3cnco3)c(OC)c2)c1 [AVN944]
AC50 cell viability [1]: 0.332 µM
efficacy [2]: -72.8%

CC(C)Oc1cc(Nc2nc(N[C@@H](C)c3ccc(F)cn3)ncc2Cl)n[nH]1 [AZ-23]
AC50 cell viability [1]: 5.25 µM
efficacy [2]: -67.9%

CCCc1cc(C(=O)N[C@H](Cc2ccc(-c3cccc(OC(F)(F)F)c3)nc2)C(=O)N[C@@H]2CCNC2)sc1C [AZ-82]
AC50 cell viability [1]: 8.33 µM
efficacy [2]: -97.3%

COc1cc(N2CCN(C)CC2)ccc1Nc1nccc(-c2cn(C)c3cnccc23)n1 [AZ-191]
AC50 cell viability [1]: 18.6 µM
efficacy [2]: -88.4%

CN1\C=N/C2=CC=C(NC3=CC(=CC=C3C)NC(=O)C4=CC(=CC=C4)C(C)(C)C#N)C=C2C1=O [AZ-628]
AC50 cell viability [1]: 0.332 µM
efficacy [2]: -50.6%

Cc1cc(Nc2nc(N[C@@H](C)c3ccc(F)cc3)c(C#N)cc2F)n[nH]1 [AZ-960]
AC50 cell viability [1]: 5.9 µM
efficacy [2]: -100%

COc1cc(OC2CCN(C)CC2)ccc1Nc1ncc2c(n1)n(C1CCCC1)c(=O)n2C [AZ-3146]
AC50 cell viability [1]: 5.9 µM
efficacy [2]: -102%

O=C1N\N=C(\CC2=CC=CC(=C2)C(=O)N3CCN(CC3)C4=NC=CC=C4C#N)C5=CC=CC=C15 [AZ-9482]
AC50 cell viability [1]: 5.25 µM
efficacy [2]: -54.2%

NC(=O)Nc1cc(-c2ccc(CN3CCOCC3)cc2)sc1C(N)=O [AZ-TAK1 Inhibitor]
AC50 cell viability [1]: 5.25 µM
efficacy [2]: -71%

CN(C)CCCOc1ccc(-c2ccc3ncc4c(c3c2)n(C2CCOCC2)c(=O)n4C)cn1 [AZD-0156]
AC50 cell viability [1]: 7.23 µM
efficacy [2]: -86%

NC1CCCN(c2c(/C=C3\SC(=O)NC3=O)cccc2-c2ccccc2)C1 (stereo not drawn) [AZD-1208]
AC50 cell viability [1]: 23.5 µM
efficacy [2]: -67.1%

Cc1cc(Nc2nc(N[C@@H](C)c3ncc(F)cn3)ncc2Cl)n[nH]1 [AZD-1480]
AC50 cell viability [1]: 5.25 µM
efficacy [2]: -66.2%

C[C@H]1COCCN1c1cc(C2([S+](=O)([O-])C3CC3)CC2)nc(-c2ccc(NC(=S)NCCO)cc2)n1 [AZD-3147]
AC50 cell viability [1]: 7.42 µM
efficacy [2]: -113%

COc1cc(N2CCC(N)CC2)ccc1Nc1ncc(Cl)c(-c2c[nH]c3ccccc23)n1 [AZD-3463]
AC50 cell viability [1]: 5.9 µM
efficacy [2]: -137%

COc1cc(CCc2cc(NC(=O)c3ccc(N4C[C@@H](C)N[C@@H](C)C4)cc3)n[nH]2)cc(OC)c1 [AZD-4547]
AC50 cell viability [1]: 10.5 µM
efficacy [2]: -98.5%

COc1nnc2ccc(N3CCC(c4ccc(OCCN5CCN(C)C(=O)[C@H]5C)cc4)CC3)nn12 [AZD-5153 6-Hydroxy-2-naphthoic acid]
AC50 cell viability [1]: 0.0833 µM
efficacy [2]: -68.6%

NC1(C(=O)N[C@@H](CCO)c2ccc(Cl)cc2)CCN(c2ncnc3[nH]ccc23)CC1 [AZD-5363]
AC50 cell viability [1]: 11.8 µM
efficacy [2]: -83.1%

Cc1ncc(-c2ccnc(Nc3ccc([S+](C)(=O)[O-])cc3)n2)n1C(C)C [AZD-5438]
AC50 cell viability [1]: 0.525 µM
efficacy [2]: -62.2%

C[C@@H](NC1=CC=CC=C1C(O)=O)C/2=C/C(=C\N3C(=O)/C=C(\N=C23)N4CCOCC4)C [AZD-6482]
AC50 cell viability [1]: 10.5 µM
efficacy [2]: -52.7%

C[C@@H]1COCCN1c1cc(C2([S@+](C)(=N)[O-])CC2)nc(-c2ccnc3[nH]ccc23)n1 [AZD-6738]
AC50 cell viability [1]: 8.33 µM
efficacy [2]: -84.1%

CN(C)C(=O)c1ccc([S+](=O)([O-])c2ccc(NC(=O)[C@@](C)(O)C(F)(F)F)c(Cl)c2)cc1 [AZD-7545]
AC50 cell viability [1]: 5.9 µM
efficacy [2]: -33.1%

NC(=O)Nc1cc(-c2cccc(F)c2)sc1C(=O)N[C@H]1CCCNC1 [AZD-7762]
AC50 cell viability [1]: 0.833 µM
efficacy [2]: -101%

COc1ccc(-c2ccc3c(N4CCOC[C@@H]4C)nc(N4CCOC[C@@H]4C)nc3n2)cc1CO [AZD-8055]
AC50 cell viability [1]: 0.295 µM
efficacy [2]: -51.6%

C[C@@H](Nc1cc(F)cc(F)c1)c1cc(C(=O)N(C)C)cc2c(=O)cc(N3CCOCC3)oc12 [AZD-8186]
AC50 cell viability [1]: 10.5 µM
efficacy [2]: -78.7%

CN1C(=O)\C(=C/C(=C1/NC2=C(F)C=C(I)C=C2)C(=O)NOCCO)C [AZD-8330]
AC50 cell viability [1]: 0.00934 µM
efficacy [2]: -68.6%

CCN1CCN(Cc2ccc(Nc3ncc(F)c(-c4cc(F)c5nc(C)n(C(C)C)c5c4)n3)nc2)CC1 [Abemaciclib]
AC50 cell viability [1]: 4.17 µM
efficacy [2]: -109%

CN(C)Cc1c(C(=O)NCCOc2ccc(C(=O)NO)cc2)oc2ccccc12 [Abexinostat]
AC50 cell viability [1]: 0.263 µM
efficacy [2]: -91.9%

CC[C@@]1(O)C[C@H](O[C@H]2C[C@H](N(C)C)[C@H](O[C@H]3C[C@H](O)[C@H](O[C@H]4CCC(=O)[C@H](C)O4)[C@H](C)O3)[C@H](C)O2)c2c(cc3c(c2O)C(=O)c2c(O)cccc2C3=O)[C@H]1C(=O)OC [Aclarubicin]
AC50 cell viability [1]: 3.72 µM
efficacy [2]: -89.2%

C\C1=C(\[C@@H](OC2=C1C=CC(=C2)O)C3=CC=C(OCCN4CCCCC4)C=C3)C5=CC=C(O)C=C5 [Acolbifene]
AC50 cell viability [1]: 18.6 µM
efficacy [2]: -94.9%

CC(C)C1NC(=O)C(NC(=O)C2=C3\N=C\4/C(=C(C)\C(=O)\C(=C4C(=O)NC5C(C)OC(=O)C(C(C)C)N(C)C(=O)CN(C)C(=O)C6CCCN6C(=O)C(NC5=O)C(C)C)N)OC3=C(C)C=C2)C(C)OC(=O)C(C(C)C)N(C)C(=O)CN(C)C(=O)C7CCCN7C1=O (stereo not drawn) [Actinomycin D]
AC50 cell viability [1]: 0.00144 µM
efficacy [2]: -73.8%

CC(C)(C)C(=O)OCOP(=O)(COCCn1cnc2c(N)ncnc21)OCOC(=O)C(C)(C)C [Adefovir dipivoxil]
AC50 cell viability [1]: 3.32 µM
efficacy [2]: -55.3%

Cc1cc(O[C@@H](CCC(F)(F)F)c2ccc(C(=O)NCCC(=O)O)cc2)cc(C)c1-c1ccc(C(C)(C)C)cc1 [Adomeglivant]
AC50 cell viability [1]: 26.3 µM
efficacy [2]: -115%

CN(C)C/C=C/C(=O)Nc1cc2c(Nc3ccc(F)c(Cl)c3)ncnc2cc1O[C@H]1CCOC1 [Afatinib]
AC50 cell viability [1]: 4.68 µM
efficacy [2]: -100%

O=C(Nc1cccc(Br)c1)c1cccc([S+](=O)([O-])N2CCCCCC2)c1 [Ak-7]
AC50 cell viability [1]: 14.8 µM
efficacy [2]: -59.7%
